The values below come from the kinase profiling compilation of Christmann-Franck et al. (2016).

Targets include CDK5 (human) (UniProt Q00535); PRKAA1 (human) (UniProt Q13131); CHEK2 (human) (UniProt O96017); CAMK1D (human) (UniProt Q8IU85); STK38L (human) (UniProt Q9Y2H1); PAK7 (human) (UniProt Q9P286); NEK6 (human) (UniProt Q9HC98); IRAK3 (human) (UniProt Q9Y616); CAMK2D (human) (UniProt Q13557); MYO3A (human) (UniProt Q8NEV4); CDC42BPB (human) (UniProt Q9Y5S2); PAK6 (human) (UniProt Q9NQU5); STK10 (human) (UniProt O94804); PIK3CD (human) (UniProt O00329); NLK (human) (UniProt Q9UBE8); SGK110 (human) (UniProt P0C264); BTK (human) (UniProt Q06187); MAPKAPK5 (human) (UniProt Q8IW41); TSSK1B (human) (UniProt Q9BXA7).

Experiment in all cases: KINOMEscan competition binding
Conditions in all cases: compound 10.0 µM

Assay [1] deals with PIK3CA (human), P42336 [E545K].
PIK3CA (human), P42336 [E545K], sequence (P42336 whole entry E545K, looked up): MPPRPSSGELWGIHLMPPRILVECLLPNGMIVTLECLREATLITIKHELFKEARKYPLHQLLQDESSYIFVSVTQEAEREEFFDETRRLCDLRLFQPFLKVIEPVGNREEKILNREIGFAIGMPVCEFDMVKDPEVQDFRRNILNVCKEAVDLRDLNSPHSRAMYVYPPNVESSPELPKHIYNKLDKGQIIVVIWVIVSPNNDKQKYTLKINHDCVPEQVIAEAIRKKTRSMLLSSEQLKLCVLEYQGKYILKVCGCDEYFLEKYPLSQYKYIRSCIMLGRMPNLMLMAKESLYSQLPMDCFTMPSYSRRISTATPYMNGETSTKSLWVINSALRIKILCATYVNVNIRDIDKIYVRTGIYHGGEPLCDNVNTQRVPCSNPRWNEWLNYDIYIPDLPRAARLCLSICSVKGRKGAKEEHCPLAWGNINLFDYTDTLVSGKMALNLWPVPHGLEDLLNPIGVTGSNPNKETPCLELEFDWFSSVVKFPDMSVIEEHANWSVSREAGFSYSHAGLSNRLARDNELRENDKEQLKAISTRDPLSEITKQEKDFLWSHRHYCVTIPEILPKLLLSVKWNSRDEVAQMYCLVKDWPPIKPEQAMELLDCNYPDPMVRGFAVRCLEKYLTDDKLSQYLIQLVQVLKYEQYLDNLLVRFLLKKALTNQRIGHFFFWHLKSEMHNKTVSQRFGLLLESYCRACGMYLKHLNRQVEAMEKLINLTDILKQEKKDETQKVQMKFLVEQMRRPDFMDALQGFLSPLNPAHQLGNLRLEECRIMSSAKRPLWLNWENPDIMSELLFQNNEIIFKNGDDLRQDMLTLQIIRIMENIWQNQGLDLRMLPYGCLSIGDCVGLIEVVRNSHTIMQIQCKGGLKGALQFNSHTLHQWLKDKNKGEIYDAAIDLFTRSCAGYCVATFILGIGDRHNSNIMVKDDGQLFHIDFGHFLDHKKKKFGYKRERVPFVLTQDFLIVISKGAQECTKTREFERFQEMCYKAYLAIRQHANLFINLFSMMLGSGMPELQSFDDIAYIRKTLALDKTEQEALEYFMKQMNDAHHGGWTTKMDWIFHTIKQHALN
In assay [2] the target is JAK2 JH1 catalytic (human) (UniProt O60674).

NEK6 (human), sequence (Q9HC98 whole entry, looked up): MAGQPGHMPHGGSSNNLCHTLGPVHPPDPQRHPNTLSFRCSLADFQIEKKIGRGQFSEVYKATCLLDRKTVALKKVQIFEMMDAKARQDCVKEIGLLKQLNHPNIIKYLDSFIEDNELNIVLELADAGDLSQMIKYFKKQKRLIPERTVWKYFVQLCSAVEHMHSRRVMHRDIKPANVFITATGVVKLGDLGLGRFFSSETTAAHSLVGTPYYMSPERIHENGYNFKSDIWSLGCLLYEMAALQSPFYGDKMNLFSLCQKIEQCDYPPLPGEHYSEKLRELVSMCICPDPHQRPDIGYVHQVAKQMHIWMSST
CAMK2D (human), sequence (Q13557 whole entry, looked up): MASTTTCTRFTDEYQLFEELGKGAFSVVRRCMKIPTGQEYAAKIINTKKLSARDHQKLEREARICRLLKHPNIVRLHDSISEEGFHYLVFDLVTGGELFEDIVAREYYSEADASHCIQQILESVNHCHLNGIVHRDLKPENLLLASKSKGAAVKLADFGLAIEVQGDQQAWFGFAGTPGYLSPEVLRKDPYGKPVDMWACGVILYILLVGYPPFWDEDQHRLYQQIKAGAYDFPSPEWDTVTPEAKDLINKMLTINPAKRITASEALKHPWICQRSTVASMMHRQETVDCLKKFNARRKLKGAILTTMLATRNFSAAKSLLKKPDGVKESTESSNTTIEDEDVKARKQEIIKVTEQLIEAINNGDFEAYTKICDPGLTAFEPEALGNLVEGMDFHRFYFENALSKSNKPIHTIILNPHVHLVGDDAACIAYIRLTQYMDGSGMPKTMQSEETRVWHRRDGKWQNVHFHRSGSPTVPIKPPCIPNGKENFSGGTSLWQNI
PRKAA1 (human), sequence (Q13131 whole entry, looked up): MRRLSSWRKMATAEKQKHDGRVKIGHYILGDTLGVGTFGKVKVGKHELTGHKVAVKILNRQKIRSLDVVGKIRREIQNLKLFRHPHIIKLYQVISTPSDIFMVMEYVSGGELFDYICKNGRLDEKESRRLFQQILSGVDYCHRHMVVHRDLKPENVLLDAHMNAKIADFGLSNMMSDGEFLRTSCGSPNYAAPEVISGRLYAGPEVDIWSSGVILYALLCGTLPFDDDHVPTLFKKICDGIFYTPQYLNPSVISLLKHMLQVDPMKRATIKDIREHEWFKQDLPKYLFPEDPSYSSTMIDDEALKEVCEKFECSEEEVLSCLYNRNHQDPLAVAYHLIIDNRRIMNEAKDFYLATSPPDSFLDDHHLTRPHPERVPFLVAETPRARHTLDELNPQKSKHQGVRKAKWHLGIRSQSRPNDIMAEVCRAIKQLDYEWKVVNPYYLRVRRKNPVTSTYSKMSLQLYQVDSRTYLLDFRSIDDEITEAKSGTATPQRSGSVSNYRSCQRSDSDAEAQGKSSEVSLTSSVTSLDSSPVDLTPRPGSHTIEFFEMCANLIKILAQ
PAK7 (human), sequence (Q9P286 whole entry, looked up): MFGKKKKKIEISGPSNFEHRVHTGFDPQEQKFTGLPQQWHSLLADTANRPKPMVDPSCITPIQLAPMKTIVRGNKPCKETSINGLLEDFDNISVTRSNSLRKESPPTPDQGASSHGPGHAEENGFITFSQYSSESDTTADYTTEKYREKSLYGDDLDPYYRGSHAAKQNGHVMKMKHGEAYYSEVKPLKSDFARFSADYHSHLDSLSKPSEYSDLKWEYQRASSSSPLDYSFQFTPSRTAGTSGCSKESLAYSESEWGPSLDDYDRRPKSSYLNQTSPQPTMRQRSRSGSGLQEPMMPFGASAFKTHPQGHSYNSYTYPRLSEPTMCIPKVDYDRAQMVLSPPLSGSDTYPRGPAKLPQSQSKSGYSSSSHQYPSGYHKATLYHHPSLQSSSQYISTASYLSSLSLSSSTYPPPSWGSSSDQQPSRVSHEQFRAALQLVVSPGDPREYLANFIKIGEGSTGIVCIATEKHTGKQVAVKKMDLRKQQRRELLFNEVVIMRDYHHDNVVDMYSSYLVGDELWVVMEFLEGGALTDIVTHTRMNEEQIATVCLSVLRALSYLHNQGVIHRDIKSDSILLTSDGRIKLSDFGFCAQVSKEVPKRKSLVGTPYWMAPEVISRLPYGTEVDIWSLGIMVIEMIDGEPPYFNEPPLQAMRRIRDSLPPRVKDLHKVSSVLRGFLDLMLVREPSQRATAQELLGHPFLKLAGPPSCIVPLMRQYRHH
CAMK1D (human), sequence (Q8IU85 whole entry, looked up): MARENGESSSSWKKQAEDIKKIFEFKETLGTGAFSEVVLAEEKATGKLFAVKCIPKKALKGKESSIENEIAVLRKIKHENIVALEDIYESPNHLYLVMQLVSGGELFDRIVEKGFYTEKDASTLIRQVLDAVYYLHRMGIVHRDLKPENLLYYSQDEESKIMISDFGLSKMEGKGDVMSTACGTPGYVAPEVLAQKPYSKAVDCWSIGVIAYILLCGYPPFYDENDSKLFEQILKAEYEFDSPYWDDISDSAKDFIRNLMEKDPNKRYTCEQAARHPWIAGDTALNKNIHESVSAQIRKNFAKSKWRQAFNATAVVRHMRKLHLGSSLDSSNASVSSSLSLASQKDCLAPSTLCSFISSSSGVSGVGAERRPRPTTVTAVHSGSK
PAK6 (human), sequence (Q9NQU5 whole entry, looked up): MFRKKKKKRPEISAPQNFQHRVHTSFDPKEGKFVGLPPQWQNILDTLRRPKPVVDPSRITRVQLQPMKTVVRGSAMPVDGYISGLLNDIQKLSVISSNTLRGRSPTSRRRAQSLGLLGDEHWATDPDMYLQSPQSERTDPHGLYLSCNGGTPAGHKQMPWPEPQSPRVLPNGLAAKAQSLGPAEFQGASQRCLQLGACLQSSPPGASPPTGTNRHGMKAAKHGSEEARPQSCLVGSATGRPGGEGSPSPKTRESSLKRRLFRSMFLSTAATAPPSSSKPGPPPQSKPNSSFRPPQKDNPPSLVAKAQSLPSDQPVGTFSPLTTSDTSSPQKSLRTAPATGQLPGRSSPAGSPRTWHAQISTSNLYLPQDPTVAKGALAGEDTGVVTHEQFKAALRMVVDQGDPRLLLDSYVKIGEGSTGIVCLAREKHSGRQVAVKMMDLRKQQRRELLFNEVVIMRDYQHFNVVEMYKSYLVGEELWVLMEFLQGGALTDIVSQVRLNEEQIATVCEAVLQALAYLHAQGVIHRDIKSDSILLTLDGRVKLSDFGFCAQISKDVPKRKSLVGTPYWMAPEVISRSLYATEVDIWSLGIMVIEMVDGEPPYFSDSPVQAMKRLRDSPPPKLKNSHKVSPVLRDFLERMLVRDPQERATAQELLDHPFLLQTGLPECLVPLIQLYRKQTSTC
CHEK2 (human), sequence (O96017 whole entry, looked up): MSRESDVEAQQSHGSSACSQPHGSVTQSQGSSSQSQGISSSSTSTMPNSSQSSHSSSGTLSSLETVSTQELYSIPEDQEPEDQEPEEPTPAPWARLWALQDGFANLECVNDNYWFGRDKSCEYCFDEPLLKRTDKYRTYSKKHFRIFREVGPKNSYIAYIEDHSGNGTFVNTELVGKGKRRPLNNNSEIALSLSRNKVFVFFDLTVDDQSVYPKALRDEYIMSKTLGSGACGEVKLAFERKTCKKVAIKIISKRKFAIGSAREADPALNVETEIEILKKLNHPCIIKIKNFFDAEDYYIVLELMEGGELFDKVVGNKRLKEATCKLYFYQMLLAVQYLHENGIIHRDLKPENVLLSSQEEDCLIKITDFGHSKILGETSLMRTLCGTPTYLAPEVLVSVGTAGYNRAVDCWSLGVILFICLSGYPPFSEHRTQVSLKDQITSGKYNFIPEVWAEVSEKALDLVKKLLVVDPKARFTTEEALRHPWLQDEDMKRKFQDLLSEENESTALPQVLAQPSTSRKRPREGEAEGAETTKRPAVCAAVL

Regarding `N=C1NC(=O)/C(=C/c2ccc(-c3ccc(F)cc3O)o2)S1`, the results for the kinase still bound, per cent of control (on CDK5 (human); at PRKAA1 (human); in assay [1]) were 12%, 32% and 24%, respectively.
On to `O=C1NC(=S)S/C1=C\c1ccc(-c2cncc3ccccc23)o1`, for which the kinase still bound, per cent of control on CHEK2 (human) came to 14%; at CAMK1D (human), 28%; at STK38L (human), 29%; at PAK7 (human) it was 11%; at NEK6 (human), 24%; on IRAK3 (human), 7.9%. Further, the kinase still bound, per cent of control turned out to be 32% on CAMK2D (human), 19% on MYO3A (human), 30% at CDC42BPB (human) and 29% on PAK6 (human).
As for `Nc1cccc(-c2cc(/C=C3\SC(=O)NC3=O)c[nH]c2=O)c1`, the kinase still bound, per cent of control in assay [2] was found to be 6.6%.
For the compound `N=C1NC(=O)/C(=C/c2ccc(-c3ccccc3O)o2)S1`, the kinase still bound, per cent of control in assay [1] worked out at 21%.
With `CS(=O)(=O)Nc1ccc(-c2ncc(/C=C3\SC(=N)NC3=O)s2)cc1`, the kinase still bound, per cent of control at STK10 (human) amounted to 6.8%.
Consider `N=C1NC(=O)/C(=C/c2ccc(-c3ccc(C(N)=O)cc3O)o2)S1`, for which the kinase still bound, per cent of control at CDK5 (human) is 27%; on CAMK2D (human), 34%; on PIK3CD (human) it was 26%.
As for `CN1C(=O)[C@H]2CCC[C@H]2N(C2CCCC2)c2nc(Nc3ccc(C(N)=O)cc3)ncc21`, the kinase still bound, per cent of control at PRKAA1 (human) stood at 31%; at NLK (human) it was 16%; on SGK110 (human) it was 30%.
Turning to `N=C1NC(=O)/C(=C/c2ccc(-c3cncc4ccccc34)o2)S1`, the kinase still bound, per cent of control on CHEK2 (human) came out at 33%; on BTK (human) it was 31%; on CAMK1D (human), 9%; at MAPKAPK5 (human), 12%; at PAK7 (human), 13%; at PRKAA1 (human), 24%. For the same compound, the kinase still bound, per cent of control on NEK6 (human) came to 31%; at IRAK3 (human) it was 11%; in [2], 29%; on CAMK2D (human), 7.6%; at MYO3A (human), 24%; on PAK6 (human), 14%.
Regarding `N=C1NC(=O)/C(=C/c2ccc(-c3csc4ccccc34)o2)S1`, the kinase still bound, per cent of control at NEK6 (human) was determined as 25%; on CDC42BPB (human), 32%.
Consider `CS(=O)(=O)Nc1ccc(-c2cncc(/C=C3\SC(=N)NC3=O)c2)cc1`, for which the kinase still bound, per cent of control was found to be 24% at NLK (human), 26% on STK10 (human) and 22% in assay [1].
As for `N=C1NC(=O)/C(=C/c2c[nH]c(=O)c(-c3ccc(N4CCNCC4)nc3)c2)S1`, the kinase still bound, per cent of control at TSSK1B (human) stood at 9.8%.
